Measurements reported in ChEMBL document CHEMBL5500388, “Design, synthesis and biological evaluation of 4-(indolin-1-yl)-6-substituted-pyrido[3,2-d]pyrimidine derivatives as Mnk1/2 inhibitors” (Eur J Med Chem, 2024).

Legend:
MOLM-13 [1] = assay: Induction of cell cycle arrest at G0/G1 stage in human MOLM-13 cells at 2 uM treated for 24 hrs by PI/RNase staining based flow cytometry (reference value: 53.98 %); type: functional
MOLM-13 [2] = assay: Induction of cell cycle arrest at G0/G1 stage in human MOLM-13 cells at 4 uM treated for 24 hrs by PI/RNase staining based flow cytometry (reference value: 53.98 %); type: functional
MOLM-13 [3] = assay: Induction of cell cycle arrest at G0/G1 stage in human MOLM-13 cells at 8 uM treated for 24 hrs by PI/RNase staining based flow cytometry (reference value: 53.98 %); type: functional
K562 [4] = assay: Induction of cell cycle arrest at G0/G1 stage in human K562 cells at 4 uM treated for 24 hrs by PI/RNase staining based flow cytometry (reference value: 38.8 %); type: functional
K562 [5] = assay: Induction of cell cycle arrest at G0/G1 stage in human K562 cells at 8 uM treated for 24 hrs by PI/RNase staining based flow cytometry (reference value: 38.8 %); type: functional
K562 [6] = assay: Induction of cell cycle arrest at G0/G1 stage in human K562 cells at 16 uM treated for 24 hrs by PI/RNase staining based flow cytometry (reference value: 38.8 %); type: functional
HCT-116 = assay: cells; settings: Homo sapiens, HCT-116, 96 h
MOLM-13 [7] = assay: cells; settings: Homo sapiens, MOLM-13, 72 h
K562 [8] = assay: cells; settings: Homo sapiens, K562, 72 h
HL-60 = assay: cells; settings: Homo sapiens, HL-60, 72 h

GI50 (HCT-116): 10.2 µM | GI50 (MOLM-13 [7]): 10.7 µM | GI50 (K562 [8]): 26.6 µM | GI50 (HL-60): 8.42 µM
Structure (SMILES): Nc1ncnc2[nH]nc(Nc3ccc(F)cc3)c12
Activity (MOLM-13 [1]): 55.79% | Activity (MOLM-13 [2]): 59.95% | Activity (MOLM-13 [3]): 66.39% | Activity (K562 [4]): 48.93% | Activity (K562 [5]): 52.06% | Activity (K562 [6]): 58.15%
